Data reported in paper PMC11555231 (Nature Communications, 2024).
Bridge positions count the residues as written; N and C are the ends. Square brackets hold non-standard residues; d marks the D form. Peptide text beside a SMILES is read from it.

Experiments:
[1] = system: human neutrophils; test: Cholesterol crystal stimulation and NET preparation, immunoblot of citrullinated histone H3; format: cell-based; conditions: 50 µM peptide pre-incubated 1 h, 1 mg/ml cholesterol crystals
Procedure: Peripheral venous blood was isolated from consenting healthy adult volunteers in heparin tubes as previously described. Briefly, blood samples were on Histopaque 1119 (Sigma-Aldrich) and then centrifuged for 20 min at 800 × g. The plasma was collected and centrifuged for a second time for 20 min at 800 × g. The neutrophil layer was collected and washed in Hyclone Hank’s Balanced Salt Solution (HBSS) -Ca, -Mg, -Phenol red (GE Healthcare) supplemented with 10 mM HEPES (Invitrogen) 0.1% FBS and further purified with a discontinuous Percoll (GE Healthcare) gradient consisting of layers with densities of 85, 80, 75, 70 and 65% and centrifuged for 20 min at 800 × g. Neutrophil-enriched layers were then collected and washed, and neutrophil purity was assessed using flow cytometry.
About 1 × 10^6 human blood neutrophils were isolated as described in the “Human neutrophils from peripheral blood healthy donors” section. Neutrophils were seeded in 6 well plates in HBSS +Ca, +Mg, -Phenol red (GE Healthcare) containing 10 mM HEPES (Invitrogen), left to settle for 30 min, then pre-incubated with either 50 μM PADI4_3, PADI4_3i or DMSO (0.5%) for 1 h. […] NET DNA concentration was determined by Quant-iT Picogreen dsDNA reagent as per the manufacturer’s instructions (Thermo Fisher Scientific). […]

[2] = system: HaLo-GFP-mito HeLa cells; test: Chloroalkane penetration assay (CAPA); format: in vitro ADME; conditions: CAPA, chloroalkane-tagged peptide, 4 h in Opti-MEM, 37 °C, chase HaLo-Tag TMR ligand 5 µM 15 min, flow cytometry; mean ± SEM of three independent experiments
Procedure: Following the addition of chloroacetyl-NHS to the N-terminal amino group, Cys(mmt) was selectively deprotected using 1% TFA, 5% triisopropylsilane in DCM (30 min, RT). Peptides were then cyclised on resin using 2% diisopropylethylamine in DMF overnight. Following cyclisation, Lys(ivDde) was deprotected using 2% hydrazine in DMF. The resin was then washed (3 x DCM, 3 x DMF) before on-resin coupling of chloroalkane carboxylic acid was performed on the lysine side chain using Hexafluorophosphate Azabenzotriazole Tetramethyl Uronium / diisopropylethylamine in DMF for 2 h. Global deprotection and purification were then carried out as described above. Chloroalkane carboxylate was synthesised as previously described.
CAPA assays were performed following the protocol published in ref. [51]. In brief, 40,000 HaLo- GFP-mito HeLa cells were seeded in a 96-well plate. Twenty-four hours later, cells were treated with different concentrations of chloroalkane-tagged peptides (100 µM to 200 nM for PADI4_3 and PADI4_3i and 50 µM to 100 nM for PADI4_11 and PADI4_11i) for 4 h in Opti-MEM. Media containing peptides was then removed, and cells were incubated with Opti-MEM (Gibco) for 15 min. After that time, the wash was removed, and cells were chased with HaLo-Tag TMR ligand (5 µM, Promega) in Opti-MEM for 15 min. The ligand was then removed, and cells were incubated with Opti-MEM for 30 min. Cells were then trypsinised, resuspended in phosphate-buffered saline (PBS) with 0.5% FBS and analysed using a benchtop flow cytometer (MACSQuant® VYB Flow cytometer Milteny Biotec). For each well, 10000 GFP positive single cells were analysed (gating workflow shown in Supplementary Fig. 18), and TMR mean fluorescence was normalised against a positive control (cells treated with HaLo-Tag TMR ligand but no peptide) and a negative control (non-treated cells). Analysis was performed using FlowJo (LCC) software and Prism GraphPad (Dotmatics). Data were presented as the average ± standard error of three independent replicates.

[3] = biological target: T1, hPADI4 (Homo sapiens, UniProt Q9UM07); test: COLDER assay, inhibition of PADI4 at 10 mM CaCl2 (substrate BAEE); format: biochemical; conditions: COLDER, 10 mM CaCl2, peptide 10–0.0003 µM
T1 construct: PADI4 (residues 1–663); Avi-Tag (unbiotinylated); made in house; host or cells: E. coli BL21(DE3) without BirA
Procedure: PADI4 activity was assessed using the COLDER assay[43] that measures the formation of urea-containing compounds (e.g. citrulline). The reaction was carried out in a 96-well plate with a final volume of 50 µl. His-PADI4 (50 nM) was incubated with different concentrations of peptides (100 µM to 0.3 nM) in the presence of CaCl2 (from 10 mM to 0.001 mM as specified) for 10 min. The reaction was started by the addition of 10 mM N^α-Benzoyl-L-arginine ethyl ester hydrochloride (BAEE, Merck). After 30 min, the reaction was quenched with EDTA (50 mM final concentration). For colour development, 200 µl of COLDER solution, consisting of 1 volume of solution A (80 mM diacetyl monoxime/2,3-butanedione monoxime (Merck) and 2 mM thiosemicarbazide (Acros Organics)) and 3 volumes of solution B (3 M H3PO4, 6 M H2SO4 and 2 mM NH4Fe(SO4)2) were added to each well and the mixture was heated at 95 °C for 15 min. After cooling to RT, absorbance at 540 nm was measured, and citrulline concentration was determined using a standard curve of citrulline standards. All studies were performed within the linear range of PADI4 activity, and data analysis was performed using Prism GraphPad (Dotmatics). Data are presented as the average ± standard error of the mean from at least two independent replicates.

T1 sequence (Q9UM07 whole entry, the tested form may be a part): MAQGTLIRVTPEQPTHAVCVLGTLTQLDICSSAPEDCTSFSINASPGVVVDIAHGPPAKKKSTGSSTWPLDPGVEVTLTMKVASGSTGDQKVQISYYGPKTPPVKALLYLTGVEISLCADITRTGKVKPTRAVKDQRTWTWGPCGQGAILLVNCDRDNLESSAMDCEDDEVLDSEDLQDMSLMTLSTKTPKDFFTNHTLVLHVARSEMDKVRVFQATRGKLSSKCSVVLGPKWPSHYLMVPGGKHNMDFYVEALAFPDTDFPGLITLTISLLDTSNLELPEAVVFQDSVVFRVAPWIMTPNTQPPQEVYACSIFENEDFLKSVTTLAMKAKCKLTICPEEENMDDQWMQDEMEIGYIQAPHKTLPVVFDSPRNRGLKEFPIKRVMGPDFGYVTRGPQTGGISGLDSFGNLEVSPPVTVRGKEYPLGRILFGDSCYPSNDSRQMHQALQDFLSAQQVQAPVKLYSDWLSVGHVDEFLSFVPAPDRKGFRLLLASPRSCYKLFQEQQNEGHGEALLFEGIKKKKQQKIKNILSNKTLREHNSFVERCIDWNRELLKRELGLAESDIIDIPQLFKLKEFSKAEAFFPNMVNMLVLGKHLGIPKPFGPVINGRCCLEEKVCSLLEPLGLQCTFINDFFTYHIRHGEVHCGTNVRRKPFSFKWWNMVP

**Q.** How did the “citrullination of histone 3 in NET preparations” value [1] turn out when `N=C(N)NCCC[C@@H]1NC(=O)[C@H](CC(=O)O)NC(=O)[C@@H](Cc2ccc(O)cc2)NC(=O)CSC[C@@H](C(=O)NCC(N)=O)NC(=O)[C@H](Cc2ccc(O)cc2)NC(=O)[C@H](CCCCN)NC(=O)[C@@H]2CCCN2C(=O)[C@H](Cc2c[nH]cn2)NC(=O)[C@H](CCCNC(=N)N)NC(=O)[C@H](Cc2ccc(O)cc2)NC(=O)[C@H](Cc2c[nH]cn2)NC(=O)[C@H](Cc2c[nH]cn2)NC1=O` [PADI4_3i] ({CH2CO}-[dY]DRHHYRHPKYCG-NH2; thioether N-12) was run?
**A.** The value was “abolished by PADI4_3 but not PADI4_3i”.

**Q.** And the CP50 [2]?
**A.** Its CP50 is 2.0 ± 0.8 µM.

**Q.** And the “PADI4 inhibition (in words)” value [3]?
**A.** The value was “did not bind or inhibit PADI4”.
